Patent publication US12239627B2, “Method of treating conditions related to the PGI2 receptor” (Arena Pharmaceuticals, Inc., priority 2014, dated 2025)

Test: Phase 1 multiple ascending dose, dose titration study with healthy subjects (adverse events, tolerated dose)
Format: in vivo, human
Conditions: for Adverse Events (no. of subjects) leading to Decrease of Dose: Abdominal pain / Adverse Events (no. of subjects) leading to Decrease of Dose: Arthralgia / Adverse Events (no. of subjects) leading to Decrease of Dose: Chest discomfort / Adverse Events (no. of subjects) leading to Decrease of Dose: Chest pain / Adverse Events (no. of subjects) leading to Decrease of Dose: Diarrhoea / Adverse Events (no. of subjects) leading to Decrease of Dose: Dizziness / Adverse Events (no. of subjects) leading to Decrease of Dose: Headache / Adverse Events (no. of subjects) leading to Decrease of Dose: Jaw pain / Adverse Events (no. of subjects) leading to Decrease of Dose: Myalgia / Adverse Events (no. of subjects) leading to Decrease of Dose: Nausea / Adverse Events (no. of subjects) leading to Decrease of Dose: Palpitations / Adverse Events (no. of subjects) leading to Decrease of Dose: Priapism / Adverse Events (no. of subjects) leading to Decrease of Dose: Vomiting: Cohort 3, twice daily
Experimental: This study was a phase 1, randomized, double-blind, placebo-controlled, multiple-dose, dose titration study. A titration interval of 6 days was employed, with each dose being administered for at least 5 days. One goal was to determine the effect of dose titration on adverse effects.
In each of two subject cohorts, Cohort 1 and Cohort 2, subjects were treated at each dose level for duration of 5 days with exception of the last dose level which included 7 days of treatment.
The protocol was amended to provide for an additional cohort, Cohort 3, in order to evaluate a different dose escalation regimen, as disclosed below.
Cohorts 1 and 2: Two groups of 15 subjects were enrolled and randomized to receive placebo (5 subjects per Cohort) or a starting dose of 0.05 mg Compound 1 (10 subjects per Cohort) on Day I. Once daily (q.d.) dosing continued through 5 days. If tolerated, the next dose escalation (placebo or 0.1 mg q.d. Compound 1) occurred on Day 6 and this dose was administered daily through Day 10.
Subsequent dose escalations were to occur in the same manner every 6th day for up to 3 additional dose escalations if tolerated (placebo or 0.2, 0.3, and 0.4 mg Compound 1) with the final dose maintained for a duration of 7 days. The dose could be decreased (“de-escalated”) or increased (“re-escalated”) based on assessment of safety and tolerability.
Cohort 3: One group of 25 subjects (S placebo and 20 active) were enrolled and randomized to receive a starting dose of 0.01 mg Compound 1 twice daily or placebo on Day 1. Twice daily dosing continued through 5 days. If tolerated, the next dose escalation (placebo or Compound 1 0.02 mg twice daily) occurred on Day 6 and this dose was administered daily through Day 10. Subsequent dose escalations were to occur in the same manner every 6th day for up to 4 additional dose escalations if tolerated (placebo or 0.03, 0.04. 0.05, and 0.07 mg twice daily Compound 1). The dose could be decreased (“de-escalated”) or increased (“re-escalated”) based on assessment of safety and tolerability. The doses tested in this cohort were 0.01, 0.02, 0.03, 0.04, 0.05, and 0.07 mg administered twice daily for a total daily dose of 0.02, 0.04, 0.06, 0.08, 0.1, and 0.14 mg, respectively.
Compound 1 capsules were provided as 0.01 mg (all Cohorts) and 0.1 mg (Cohorts 1 and 2 only) strengths.

O=C(O)COC[C@H]1CC[C@H](COC(=O)N(c2ccccc2)c2ccc(Cl)cc2)CC1 [Compound 1, 2-(((1r,4r)-4-(((4-chlorophenyl)(phenyl)carbamoyloxy)methyl)cyclohexyl)methoxy)acetic acid]
Subjects who received 0.04 mg as highest dose for at least 3 days (Cohort 3): 0.04 mg-20 subjects
Subjects who received 0.06 mg as highest dose for at least 3 days (Cohort 3): 0.06 mg-19 subjects
Subjects who received 0.08 mg as highest dose for at least 3 days (Cohort 3): 0.08 mg-11 subjects
Subjects who received 0.10 mg as highest dose for at least 3 days (Cohort 3): 0.10 mg-8 subjects
Subjects who received 0.14 mg as highest dose for at least 3 days (Cohort 3): 0.14 mg-3 subjects
Subjects with Final Compound 1 Total Daily Dose of 0.04 mg (Cohort 3): 0.04 mg-4 subjects
Subjects with Final Compound 1 Total Daily Dose of 0.06 mg (Cohort 3): 0.06 mg-6 subjects
Subjects with Final Compound 1 Total Daily Dose of 0.08 mg (Cohort 3): 0.08 mg-2 subjects
Subjects with Final Compound 1 Total Daily Dose of 0.10 mg (Cohort 3): 0.10 mg-6 subjects
Subjects with Final Compound 1 Total Daily Dose of 0.14 mg (Cohort 3): 0.14 mg-2 subjects
Adverse Events (no. of subjects) leading to Decrease of Dose: Abdominal pain (0.01 mg (N = 20)): 0 subjects
Adverse Events (no. of subjects) leading to Decrease of Dose: Arthralgia (0.01 mg (N = 20)): 0 subjects
Adverse Events (no. of subjects) leading to Decrease of Dose: Chest discomfort (0.01 mg (N = 20)): 0 subjects
Adverse Events (no. of subjects) leading to Decrease of Dose: Chest pain (0.01 mg (N = 20)): 0 subjects
Adverse Events (no. of subjects) leading to Decrease of Dose: Diarrhoea (0.01 mg (N = 20)): 0 subjects
Adverse Events (no. of subjects) leading to Decrease of Dose: Dizziness (0.01 mg (N = 20)): 0 subjects
Adverse Events (no. of subjects) leading to Decrease of Dose: Headache (0.01 mg (N = 20)): 1 subjects
Adverse Events (no. of subjects) leading to Decrease of Dose: Jaw pain (0.01 mg (N = 20)): 0 subjects
Adverse Events (no. of subjects) leading to Decrease of Dose: Myalgia (0.01 mg (N = 20)): 1 subjects
Adverse Events (no. of subjects) leading to Decrease of Dose: Nausea (0.01 mg (N = 20)): 0 subjects
Adverse Events (no. of subjects) leading to Decrease of Dose: Palpitations (0.01 mg (N = 20)): 0 subjects
Adverse Events (no. of subjects) leading to Decrease of Dose: Priapism (0.01 mg (N = 20)): 0 subjects
Adverse Events (no. of subjects) leading to Decrease of Dose: Vomiting (0.01 mg (N = 20)): 0 subjects
Adverse Events (no. of subjects) leading to Decrease of Dose: Abdominal pain (0.02 mg (N = 20)): 0 subjects
Adverse Events (no. of subjects) leading to Decrease of Dose: Arthralgia (0.02 mg (N = 20)): 1 subjects
Adverse Events (no. of subjects) leading to Decrease of Dose: Chest discomfort (0.02 mg (N = 20)): 0 subjects
Adverse Events (no. of subjects) leading to Decrease of Dose: Chest pain (0.02 mg (N = 20)): 1 subjects
Adverse Events (no. of subjects) leading to Decrease of Dose: Diarrhoea (0.02 mg (N = 20)): 1 subjects
Adverse Events (no. of subjects) leading to Decrease of Dose: Dizziness (0.02 mg (N = 20)): 0 subjects
Adverse Events (no. of subjects) leading to Decrease of Dose: Headache (0.02 mg (N = 20)): 6 subjects
Adverse Events (no. of subjects) leading to Decrease of Dose: Jaw pain (0.02 mg (N = 20)): 0 subjects
Adverse Events (no. of subjects) leading to Decrease of Dose: Myalgia (0.02 mg (N = 20)): 2 subjects
Adverse Events (no. of subjects) leading to Decrease of Dose: Nausea (0.02 mg (N = 20)): 3 subjects
Adverse Events (no. of subjects) leading to Decrease of Dose: Palpitations (0.02 mg (N = 20)): 1 subjects
Adverse Events (no. of subjects) leading to Decrease of Dose: Priapism (0.02 mg (N = 20)): 0 subjects
Adverse Events (no. of subjects) leading to Decrease of Dose: Vomiting (0.02 mg (N = 20)): 1 subjects
Adverse Events (no. of subjects) leading to Decrease of Dose: Abdominal pain (0.03 mg (N = 20)): 1 subjects
Adverse Events (no. of subjects) leading to Decrease of Dose: Arthralgia (0.03 mg (N = 20)): 0 subjects
Adverse Events (no. of subjects) leading to Decrease of Dose: Chest discomfort (0.03 mg (N = 20)): 1 subjects
Adverse Events (no. of subjects) leading to Decrease of Dose: Chest pain (0.03 mg (N = 20)): 0 subjects
Adverse Events (no. of subjects) leading to Decrease of Dose: Diarrhoea (0.03 mg (N = 20)): 1 subjects
Adverse Events (no. of subjects) leading to Decrease of Dose: Dizziness (0.03 mg (N = 20)): 0 subjects
Adverse Events (no. of subjects) leading to Decrease of Dose: Headache (0.03 mg (N = 20)): 1 subjects
Adverse Events (no. of subjects) leading to Decrease of Dose: Jaw pain (0.03 mg (N = 20)): 0 subjects
Adverse Events (no. of subjects) leading to Decrease of Dose: Myalgia (0.03 mg (N = 20)): 1 subjects
Adverse Events (no. of subjects) leading to Decrease of Dose: Nausea (0.03 mg (N = 20)): 1 subjects
Adverse Events (no. of subjects) leading to Decrease of Dose: Palpitations (0.03 mg (N = 20)): 0 subjects
Adverse Events (no. of subjects) leading to Decrease of Dose: Priapism (0.03 mg (N = 20)): 1 subjects
Adverse Events (no. of subjects) leading to Decrease of Dose: Vomiting (0.03 mg (N = 20)): 0 subjects
Adverse Events (no. of subjects) leading to Decrease of Dose: Abdominal pain (0.04 mg (N = 12)): 0 subjects
Adverse Events (no. of subjects) leading to Decrease of Dose: Arthralgia (0.04 mg (N = 12)): 0 subjects
Adverse Events (no. of subjects) leading to Decrease of Dose: Chest discomfort (0.04 mg (N = 12)): 0 subjects
Adverse Events (no. of subjects) leading to Decrease of Dose: Chest pain (0.04 mg (N = 12)): 0 subjects
Adverse Events (no. of subjects) leading to Decrease of Dose: Diarrhoea (0.04 mg (N = 12)): 0 subjects
Adverse Events (no. of subjects) leading to Decrease of Dose: Dizziness (0.04 mg (N = 12)): 2 subjects
Adverse Events (no. of subjects) leading to Decrease of Dose: Headache (0.04 mg (N = 12)): 1 subjects
Adverse Events (no. of subjects) leading to Decrease of Dose: Jaw pain (0.04 mg (N = 12)): 0 subjects
Adverse Events (no. of subjects) leading to Decrease of Dose: Myalgia (0.04 mg (N = 12)): 0 subjects
Adverse Events (no. of subjects) leading to Decrease of Dose: Nausea (0.04 mg (N = 12)): 0 subjects
Adverse Events (no. of subjects) leading to Decrease of Dose: Palpitations (0.04 mg (N = 12)): 0 subjects
Adverse Events (no. of subjects) leading to Decrease of Dose: Priapism (0.04 mg (N = 12)): 0 subjects
Adverse Events (no. of subjects) leading to Decrease of Dose: Vomiting (0.04 mg (N = 12)): 0 subjects
Adverse Events (no. of subjects) leading to Decrease of Dose: Abdominal pain (0.05 mg (N = 8)): 1 subjects
Adverse Events (no. of subjects) leading to Decrease of Dose: Arthralgia (0.05 mg (N = 8)): 0 subjects
Adverse Events (no. of subjects) leading to Decrease of Dose: Chest discomfort (0.05 mg (N = 8)): 0 subjects
Adverse Events (no. of subjects) leading to Decrease of Dose: Chest pain (0.05 mg (N = 8)): 0 subjects
Adverse Events (no. of subjects) leading to Decrease of Dose: Diarrhoea (0.05 mg (N = 8)): 0 subjects
Adverse Events (no. of subjects) leading to Decrease of Dose: Dizziness (0.05 mg (N = 8)): 1 subjects
Adverse Events (no. of subjects) leading to Decrease of Dose: Headache (0.05 mg (N = 8)): 0 subjects
Adverse Events (no. of subjects) leading to Decrease of Dose: Jaw pain (0.05 mg (N = 8)): 0 subjects
Adverse Events (no. of subjects) leading to Decrease of Dose: Myalgia (0.05 mg (N = 8)): 0 subjects
Adverse Events (no. of subjects) leading to Decrease of Dose: Nausea (0.05 mg (N = 8)): 0 subjects
Adverse Events (no. of subjects) leading to Decrease of Dose: Palpitations (0.05 mg (N = 8)): 0 subjects
Adverse Events (no. of subjects) leading to Decrease of Dose: Priapism (0.05 mg (N = 8)): 0 subjects
Adverse Events (no. of subjects) leading to Decrease of Dose: Vomiting (0.05 mg (N = 8)): 0 subjects
Adverse Events (no. of subjects) leading to Decrease of Dose: Abdominal pain (0.07 mg (N = 4)): 0 subjects
Adverse Events (no. of subjects) leading to Decrease of Dose: Arthralgia (0.07 mg (N = 4)): 1 subjects
Adverse Events (no. of subjects) leading to Decrease of Dose: Chest discomfort (0.07 mg (N = 4)): 0 subjects
Adverse Events (no. of subjects) leading to Decrease of Dose: Chest pain (0.07 mg (N = 4)): 0 subjects
Adverse Events (no. of subjects) leading to Decrease of Dose: Diarrhoea (0.07 mg (N = 4)): 0 subjects
Adverse Events (no. of subjects) leading to Decrease of Dose: Dizziness (0.07 mg (N = 4)): 0 subjects
Adverse Events (no. of subjects) leading to Decrease of Dose: Headache (0.07 mg (N = 4)): 1 subjects
Adverse Events (no. of subjects) leading to Decrease of Dose: Jaw pain (0.07 mg (N = 4)): 1 subjects
Adverse Events (no. of subjects) leading to Decrease of Dose: Myalgia (0.07 mg (N = 4)): 0 subjects
Adverse Events (no. of subjects) leading to Decrease of Dose: Nausea (0.07 mg (N = 4)): 1 subjects
Adverse Events (no. of subjects) leading to Decrease of Dose: Palpitations (0.07 mg (N = 4)): 0 subjects
